Laboratory results: patent publication US6479435B1, “Diaryl ethers and processes for their preparation and herbicidal and desiccant compositions containing them” (ISK Americas Incorporated, priority 1997, dated 2002)

Experiments:
Type in all cases: in vivo
[1] = test system: Johnsongrass (Sorghum halepense, SORHA); assay: Pre-emerge greenhouse herbicide test, phytotoxicity rating; conditions: 14 days after application, rating scale 0-100
Procedure, shortened: (§1)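 Visual 0–100 injury rating (100 = all plants dead) taken 14 days after treatment. Rates of 125–1000 g ai/ha in acetone, 187 l/ha, were sprayed onto soil one day post-sowing; pots were surface-watered to incorporate, then bottom-watered.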

[2] = test system: barnyardgrass (Echinochloa crusgalli, ECHCG); assay: as above; conditions: 14 days after application, rating scale 0-100
Procedure, shortened: as §1

[3] = test system: common ragweed (Ambrosia artemisiifolia L., AMBEL); assay: as above; conditions: 14 days after application, rating scale 0-100
Procedure, shortened: as §1

[4] = test system: green foxtail (Setaria viridis, SETVI); assay: as above; conditions: 14 days after application, rating scale 0-100
Procedure, shortened: as §1

[5] = test system: ivyleaf morningglory (Ipomoea hederacea, IPOHE); assay: as above; conditions: 14 days after application, rating scale 0-100
Procedure, shortened: as §1

[6] = test system: lambsquarters (Chenopodium album, CHEAL); assay: as above; conditions: 14 days after application, rating scale 0-100
Procedure, shortened: as §1

[7] = test system: large crabgrass (Digitaria sanguinalis, DIGSA); assay: as above; conditions: 14 days after application, rating scale 0-100
Procedure, shortened: as §1

[8] = test system: redroot pigweed (Amaranthus retroflexus, AMARE); assay: as above; conditions: 14 days after application, rating scale 0-100
Procedure, shortened: as §1

[9] = test system: sicklepod (Cassia obtusifolia, CASOB); assay: as above; conditions: 14 days after application, rating scale 0-100
Procedure, shortened: as §1

[10] = test system: velvetleaf (Abutilon theophrasti, ABUTH); assay: as above; conditions: 14 days after application, rating scale 0-100
Procedure, shortened: as §1

[11] = test system: common ragweed (Ambrosia artemisiifolia L., AMBEL); assay: Post-emerge greenhouse herbicide test, phytotoxicity rating; conditions: 14 days after application; for phytotoxicity rating AMBEL: scale 0-100
Description: A standard greenhouse herbicide activity screening system was used to evaluate the herbicidal efficacy and crop safety of these test compounds. Six broadleaf weed species including redroot pigweed (Amaranthus retroflexus, AMARE), velvetleaf (Abutilon theophrasti, ABUTH), sicklepod (Cassia obtusifolia, CASOB), ivyleaf morningglory (Ipomoea hederacea, IPOHE), lambsquarters (Chenopodium album, CHEAL) and common ragweed (Ambrosia artemisiifolia L., AMBEL) were used as test species. Four grass weed species including green foxtail (Setaria viridis, SETVI), barnyardgrass (Echinochloa crusgalli, ECHCG), Johnsongrass (Sorghum halepense, SORHA), and large crabgrass (Digitaria sanguinalis, DIGSA) were also used. In addition, three crop species, field corn (Zea mays L., var. Dekalb 535, CORN), soybean (Glycine max L., var. Pella 86, SOY), and upland rice (Oryza sp., var.Tebonnet, RICE) were included.
All test compounds were dissolved in acetone and applied to the test units in a volume of 187 l/ha. […] Plants were arranged on a shelf so that the top of the canopy (post-emerge) or top of the soil surface (pre-emerge) was 40-45 cm below the nozzle. Pressurized air was used to force the test solution through the nozzle as it was mechanically advanced (via electrically driven chain drive) over the top of all test plants/pots. This application simulates a typical commercial field herbicide application.
In the post-emerge test, a commercial non-ionic surfactant was also included (0.25% v/v) to enhance wetting of the leaf surfaces Qf target plants at rates ranging from 63 g ai/ha to 1000 g ai/ha. For post-emerge tests, seeds were planted 8-21 days prior to the test to allow emergence and good foliage development prior to application of the test substances. At the time of the post-emerge application, plants of all species were usually at the 2-3 leaf stage of development. Post-emerge test units were always bottom-watered.
At 14 days after application of the test materials, phytotoxicity ratings were recorded. A rating scale of 0-100 was used as previously described in Research Methods in Weed Science, 2nd edition, B. Truelove, Ed., Southern Weed Science Society, Auburn University, Auburn, Ala., 1977. Briefly, “0” corresponds to no damage and “100” corresponds to complete death of all plants in the test unit. This scale was used both to determine efficacy against weed species and damage to crop species. Herbicide activity data for various compounds of this invention, which are shown by compound number in Tables 1-9, are shown in Tables 13 and 14.

[12] = test system: Johnsongrass (Sorghum halepense, SORHA); assay: as above; conditions: 14 days after application; for phytotoxicity rating SORHA: scale 0-100
Procedure, shortened: (§2)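 Scores use a 0 (no damage) to 100 (complete kill) scale, taken 14 days after a foliar spray. Acetone solutions with 0.25% v/v non-ionic surfactant were applied by track sprayer at 187 l/ha and 63-1000 g ai/ha to bottom-watered 2-3 leaf plants.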

[13] = test system: barnyardgrass (Echinochloa crusgalli, ECHCG); assay: as above; conditions: 14 days after application; for phytotoxicity rating ECHCG: scale 0-100
Procedure, shortened: as §2

[14] = test system: green foxtail (Setaria viridis, SETVI); assay: as above; conditions: 14 days after application; for phytotoxicity rating SETVI: scale 0-100
Procedure, shortened: as §2

[15] = test system: ivyleaf morningglory (Ipomoea hederacea, IPOHE); assay: as above; conditions: 14 days after application; for phytotoxicity rating IPOHE: scale 0-100
Procedure, shortened: as §2

[16] = test system: lambsquarters (Chenopodium album, CHEAL); assay: as above; conditions: 14 days after application; for phytotoxicity rating CHEAL: scale 0-100
Procedure, shortened: as §2

[17] = test system: large crabgrass (Digitaria sanguinalis, DIGSA); assay: as above; conditions: 14 days after application; for phytotoxicity rating DIGSA: scale 0-100
Procedure, shortened: as §2

[18] = test system: redroot pigweed (Amaranthus retroflexus, AMARE); assay: as above; conditions: 14 days after application; for phytotoxicity rating AMARE: scale 0-100
Procedure, shortened: as §2

[19] = test system: sicklepod (Cassia obtusifolia, CASOB); assay: as above; conditions: 14 days after application; for phytotoxicity rating CASOB: scale 0-100
Procedure, shortened: as §2

[20] = test system: velvetleaf (Abutilon theophrasti, ABUTH); assay: as above; conditions: 14 days after application; for phytotoxicity rating ABUTH: scale 0-100
Procedure, shortened: as §2

[21] = test system: field corn (Zea mays L., var. Dekalb 535, CORN); assay: Pre-emerge greenhouse test, crop damage rating; conditions: 14 days after application, rating scale 0-100
Procedure, shortened: as §1

[22] = test system: upland rice (Oryza sp., var.Tebonnet, RICE); assay: Pre-emerge greenhouse test, crop damage rating; conditions: 14 days after application, rating scale 0-100
Procedure, shortened: as §1

[23] = test system: soybean (Glycine max L., var. Pella 86, SOY); assay: Pre-emerge greenhouse test, crop damage rating; design: key to SOY crop damage rating: 0 = no damage, 100 = complete death of all plants; conditions: 14 days after application, rating scale 0-100
Procedure, shortened: as §1

[24] = test system: field corn (Zea mays L., var. Dekalb 535, CORN); assay: Post-emerge greenhouse test, crop damage rating; conditions: 14 days after application, scale 0-100
Procedure, shortened: as §2

[25] = test system: upland rice (Oryza sp., var.Tebonnet, RICE); assay: Post-emerge greenhouse test, crop damage rating; conditions: 14 days after application, scale 0-100
Procedure, shortened: as §2

[26] = test system: soybean (Glycine max L., var. Pella 86, SOY); assay: Post-emerge greenhouse test, crop damage rating; design: key to crop damage rating SOY: 0-100 scale: 0 = no damage, 100 = complete death of all plants; conditions: 14 days after application, scale 0-100
Procedure, shortened: as §2

## O=c1n(CCCF)nnn1-c1cc(Oc2ncccn2)c(Cl)cc1F [Compound 6-10, 1-[4-chloro-2-fluoro-5-(2-pyrimidyloxy)phenyl]-4-(3-fluoropropyl)-1,4-dihydro-5-oxo-5H-tetrazole]
[1]; 125 g ai/ha
  phytotoxicity rating SORHA: 100
[1]; 500 g ai/ha
  phytotoxicity rating SORHA: 100
[2]; 125 g ai/ha
  phytotoxicity rating ECHCG: 100
[2]; 500 g ai/ha
  phytotoxicity rating ECHCG: 100
[3]; 125 g ai/ha
  phytotoxicity rating AMBEL: 100
[3]; 500 g ai/ha
  phytotoxicity rating AMBEL: 100
[4]; 125 g ai/ha
  phytotoxicity rating SETVI: 100
[4]; 500 g ai/ha
  phytotoxicity rating SETVI: 100
[5]; 125 g ai/ha
  phytotoxicity rating IPOHE: 100
[5]; 500 g ai/ha
  phytotoxicity rating IPOHE: 100
[6]; 125 g ai/ha
  phytotoxicity rating CHEAL: 100
[6]; 500 g ai/ha
  phytotoxicity rating CHEAL: 100
[7]; 125 g ai/ha
  phytotoxicity rating DIGSA: 100
[7]; 500 g ai/ha
  phytotoxicity rating DIGSA: 100
[8]; 125 g ai/ha
  phytotoxicity rating AMARE: 100
[8]; 500 g ai/ha
  phytotoxicity rating AMARE: 100
[9]; 125 g ai/ha
  phytotoxicity rating CASOB: 40
[9]; 500 g ai/ha
  phytotoxicity rating CASOB: 100
[10]; 125 g ai/ha
  phytotoxicity rating ABUTH: 100
[10]; 500 g ai/ha
  phytotoxicity rating ABUTH: 100
[11]; 63 g al/ha
  AMBEL phytotoxicity rating (0-100): 30
[11]; 500 g al/ha
  AMBEL phytotoxicity rating (0-100): 100
[12]; 63 g al/ha
  SORHA phytotoxicity rating (0-100): 0
[12]; 500 g al/ha
  SORHA phytotoxicity rating (0-100): 100
[13]; 63 g al/ha
  ECHCG phytotoxicity rating (0-100): 30
[13]; 500 g al/ha
  ECHCG phytotoxicity rating (0-100): 100
[14]; 63 g al/ha
  SETVI phytotoxicity rating (0-100): 30
[14]; 500 g al/ha
  SETVI phytotoxicity rating (0-100): 100
[15]; 63 g al/ha
  IPOHE phytotoxicity rating (0-100): 100
[15]; 500 g al/ha
  IPOHE phytotoxicity rating (0-100): 100
[16]; 63 g al/ha
  CHEAL phytotoxicity rating (0-100): 90
[16]; 500 g al/ha
  CHEAL phytotoxicity rating (0-100): 100
[17]; 63 g al/ha
  DIGSA phytotoxicity rating (0-100): 50
[17]; 500 g al/ha
  DIGSA phytotoxicity rating (0-100): 100
[18]; 63 g al/ha
  AMARE phytotoxicity rating (0-100): 90
[18]; 500 g al/ha
  AMARE phytotoxicity rating (0-100): 100
[19]; 63 g al/ha
  CASOB phytotoxicity rating (0-100): 30
[19]; 500 g al/ha
  CASOB phytotoxicity rating (0-100): 100
[20]; 63 g al/ha
  ABUTH phytotoxicity rating (0-100): 100
[20]; 500 g al/ha
  ABUTH phytotoxicity rating (0-100): 100

## CSc1cccnc1Oc1cc(-n2c(=O)n3n(c2=S)CCCC3)c(F)cc1Cl [Compound 8-43]
[1]; Rate 125 g al/ha
  SORHA phytotoxicity rating: 0
[1]; Rate 250 g al/ha
  SORHA phytotoxicity rating: 0
[2]; Rate 125 g al/ha
  ECHCG phytotoxicity rating: 0
[2]; Rate 250 g al/ha
  ECHCG phytotoxicity rating: 0
[4]; Rate 125 g al/ha
  SETVI phytotoxicity rating: 100
[4]; Rate 250 g al/ha
  SETVI phytotoxicity rating: 100
[5]; Rate 125 g al/ha
  IPOHE phytotoxicity rating: 0
[5]; Rate 250 g al/ha
  IPOHE phytotoxicity rating: 20
[6]; Rate 125 g al/ha
  CHEAL phytotoxicity rating: 100
[6]; Rate 250 g al/ha
  CHEAL phytotoxicity rating: 100
[7]; Rate 125 g al/ha
  DIGSA phytotoxicity rating: 90
[7]; Rate 250 g al/ha
  DIGSA phytotoxicity rating: 100
[8]; Rate 125 g al/ha
  AMARE phytotoxicity rating: 20
[8]; Rate 250 g al/ha
  AMARE phytotoxicity rating: 70
[9]; Rate 125 g al/ha
  CASOB phytotoxicity rating: 20
[9]; Rate 250 g al/ha
  CASOB phytotoxicity rating: 30
[10]; Rate 125 g al/ha
  ABUTH phytotoxicity rating: 10
[10]; Rate 250 g al/ha
  ABUTH phytotoxicity rating: 30
[21]; Rate 125 g al/ha
  CORN crop damage rating: 0
[21]; Rate 250 g al/ha
  CORN crop damage rating: 0
[22]; Rate 125 g al/ha
  RICE crop damage rating: 20
[22]; Rate 250 g al/ha
  RICE crop damage rating: 20
[23]; Rate 125 g al/ha
  SOY crop damage rating: 0
[23]; Rate 250 g al/ha
  SOY crop damage rating: 0
[11]; rate 63 g ai/ha
  phytotoxicity rating AMBEL: 100
[11]; rate 250 g ai/ha
  phytotoxicity rating AMBEL: 100
[12]; rate 63 g ai/ha
  phytotoxicity rating SORHA: 20
[12]; rate 250 g ai/ha
  phytotoxicity rating SORHA: 30
[13]; rate 63 g ai/ha
  phytotoxicity rating ECHCG: 20
[13]; rate 250 g ai/ha
  phytotoxicity rating ECHCG: 30
[14]; rate 63 g ai/ha
  phytotoxicity rating SETVI: 40
[14]; rate 250 g ai/ha
  phytotoxicity rating SETVI: 60
[15]; rate 63 g ai/ha
  phytotoxicity rating IPOHE: 100
[15]; rate 250 g ai/ha
  phytotoxicity rating IPOHE: 100
[16]; rate 63 g ai/ha
  phytotoxicity rating CHEAL: 90
[16]; rate 250 g ai/ha
  phytotoxicity rating CHEAL: 100
[17]; rate 63 g ai/ha
  phytotoxicity rating DIGSA: 0
[17]; rate 250 g ai/ha
  phytotoxicity rating DIGSA: 20
[18]; rate 63 g ai/ha
  phytotoxicity rating AMARE: 60
[18]; rate 250 g ai/ha
  phytotoxicity rating AMARE: 90
[19]; rate 63 g ai/ha
  phytotoxicity rating CASOB: 95
[19]; rate 250 g ai/ha
  phytotoxicity rating CASOB: 100
[20]; rate 63 g ai/ha
  phytotoxicity rating ABUTH: 100
[20]; rate 250 g ai/ha
  phytotoxicity rating ABUTH: 100
[24]; rate 63 g ai/ha
  crop damage rating CORN: 20
[24]; rate 250 g ai/ha
  crop damage rating CORN: 30
[25]; rate 63 g ai/ha
  crop damage rating RICE: 10
[25]; rate 250 g ai/ha
  crop damage rating RICE: 30
[26]; rate 63 g ai/ha
  crop damage rating SOY: 80
[26]; rate 250 g ai/ha
  crop damage rating SOY: 100
